Results reported in US9950038B2, “Methods and compositions for inhibiting delayed graft function” (THE TRUSTEES OF THE UNIVERSIY OF PENNSYLVANIA, priority 2011, dated 2018).
Ends that are not written are not given here.

What was measured:
conscious dogs = assay: Recovery after coronary artery occlusion and reperfusion in conscious dogs; format: in vivo; conditions: 1.5 pmol/kg/min at the time of reperfusion following coronary artery occlusion
Text: CBF and respective regional wall thickening responses to CAO and CAR. The CBF response (top) is characterized by reactive hyperemia followed by gradual return of flow to pre-occlusion levels in both control and GLP-1-treated animals. The different patterns of recovery of regional contractile function between the two groups are illustrated (bottom).
(§1) This mechanism involves improved ventricular relaxation which is known to be most sensitive to ATP depletion.

[1] = tested on: humans with acute myocardial infarction; assay: Infusion at reperfusion in humans with acute myocardial infarction; format: in vivo
Text: Lower panel illustrates individual data. […] Lower panel illustrates individual data.
as §1

[2] = tested on: patients with Class 3-4 heart failure; assay: Administration to patients with Class 3-4 heart failure; format: in vivo, humans; conditions: administered for 5 weeks
[3] = tested on: conscious dogs with pacing-induced DCM; assay: Myocardial glucose uptake during hyperinsulinemic euglycemic clamp in conscious dogs with pacing-induced DCM; format: in vivo; conditions: basal and insulin-stimulated
Text: This provides glycolytic ATP without further increases in mitochondrial ROS production. […] This provides the rationale for the use of the native peptide in the treatment of post-ischemic allograft injury.

[4] = tested on: conscious pigs with biventricular failure; assay: Chronic conscious pig model of biventricular failure with impaired renal blood flow; format: in vivo; conditions: short term (2 hours) infusion, 1.5 pmol/kg/min
Text: FIG. 4, comprising FIG. 4A and 4B show impaired renal blood flow but not cardiac output in pigs with biventricular failure.
There is a model of biventricular heart failure in conscious pigs that is associated with reductions in renal blood flow and function. FIG. 3 illustrates the model and the perturbation in renal blood flow. This is an important model of cardio-renal syndrome in which renal and cardiac injury are found together. FIG. 4 illustrates a 50% reduction in renal blood flow without a reduction in cardiac output in conscious pigs with biventricular failure.

HIF-1a = HIF-1a induction in normal hearts; format: in vivo; conditions: intravenous continuous administration
Text: The induction of this cyto-protective program is beneficial in the face of subsequent ischemic injury in allografts. p38 MAP kinase activation has been associated with the stabilization of praline residues which otherwise target the HIF-1a subunits to ubiquinization. The stabilization allows the subunits to form heterodimers which active a gene program of cytoprotection.

Row | Substance | recovery of left ventricular function (conscious dogs) | peri-infarct and global LV function ([1]; 1.5 pmol/kg/min at the time of reperfusion, humans with acute myocardial infarction, versus patients on comparable therapies without GLP-1) | natriuresis [2] | myocardial glucose uptake [3] | GFR [4] | renal blood flow [4] | urinary sodium excretion [4] | requirement for inotropic and pressure support ([1]; GLP-1 infusion, population not given) | HIF-1a mRNA (HIF-1a) | expression of HIF-1a inducible genes, heme-oxygenase-1 (HO-1) (HIF-1a)
1 | GLP-1 (7-36) amide (HAEGTFTSDVSSYLEGQAAKEFIAWLVKGR-NH2) | more rapid and complete recovery of left ventricular function | improved peri-infarct and global LV function | significant natriuresis that required reduction in diuretic doses | increase myocardial glucose uptake independent of an increase in circulating insulin | – | – | – | – | – | –
2 | GLP-1 (9-36) amide (EGTFTSDVSSYLEGQAAKEFIAWLVKGR-NH2) | – | – | – | increase myocardial glucose uptake independent of an increase in circulating insulin | – | – | – | – | – | –
3 | Glucagon-like peptide-1 [GLP-1] | – | – | – | – | improvement in GFR | returned renal blood flow to near normal levels | increased urinary sodium excretion | reduces the requirement for inotropic and pressure support | increases in HIF-1a mRNA | increased expression of HIF-1a inducible genes, heme-oxygenase-1 (HO-1)
